The text below walks through data of ChEMBL document CHEMBL2203047, “Discovery and SAR of a novel series of non-MPEP site mGlu₅ PAMs based on an aryl glycine sulfonamide scaffold” (Bioorg Med Chem Lett, 2012).

Usually EC50 stands for the concentration at which the effect is half-maximal. What is called Emax is the greatest response seen or fitted, relative to the assay's reference. By pEC50 is commonly meant the negative decadic logarithm of the EC50, by convention in mol/L. The Ki is the equilibrium dissociation constant of an inhibitor or competing ligand from its target. A high value points to lower affinity. The term fraction unbound denotes free concentration divided by total concentration. For orientation: IC50 means the concentration that gives 50% inhibition.

Calls of active or inactive are those of the source. The calls are words filed in the database; no cut-off is given here.

For data set [1], the system named is Plasma. The experiment in a line: (§1) Fraction unbound in human plasma at 5 uM after 4 hrs by equilibrium dialysis method. The data set is classed as ADME, cell-free. The note with it: 4 h, 5 µM.
The target of data set [2] is T1, Metabotropic glutamate receptor 5 (Rattus norvegicus, UniProt P31424). The experiment in a line: Ago-positive allosteric modulation of rat mGlu5 receptor expressed in HEK293 cells by fluorescence-based calcium flux assay. The data set is classed as functional, cell-based.
T1 sequence (P31424 whole entry): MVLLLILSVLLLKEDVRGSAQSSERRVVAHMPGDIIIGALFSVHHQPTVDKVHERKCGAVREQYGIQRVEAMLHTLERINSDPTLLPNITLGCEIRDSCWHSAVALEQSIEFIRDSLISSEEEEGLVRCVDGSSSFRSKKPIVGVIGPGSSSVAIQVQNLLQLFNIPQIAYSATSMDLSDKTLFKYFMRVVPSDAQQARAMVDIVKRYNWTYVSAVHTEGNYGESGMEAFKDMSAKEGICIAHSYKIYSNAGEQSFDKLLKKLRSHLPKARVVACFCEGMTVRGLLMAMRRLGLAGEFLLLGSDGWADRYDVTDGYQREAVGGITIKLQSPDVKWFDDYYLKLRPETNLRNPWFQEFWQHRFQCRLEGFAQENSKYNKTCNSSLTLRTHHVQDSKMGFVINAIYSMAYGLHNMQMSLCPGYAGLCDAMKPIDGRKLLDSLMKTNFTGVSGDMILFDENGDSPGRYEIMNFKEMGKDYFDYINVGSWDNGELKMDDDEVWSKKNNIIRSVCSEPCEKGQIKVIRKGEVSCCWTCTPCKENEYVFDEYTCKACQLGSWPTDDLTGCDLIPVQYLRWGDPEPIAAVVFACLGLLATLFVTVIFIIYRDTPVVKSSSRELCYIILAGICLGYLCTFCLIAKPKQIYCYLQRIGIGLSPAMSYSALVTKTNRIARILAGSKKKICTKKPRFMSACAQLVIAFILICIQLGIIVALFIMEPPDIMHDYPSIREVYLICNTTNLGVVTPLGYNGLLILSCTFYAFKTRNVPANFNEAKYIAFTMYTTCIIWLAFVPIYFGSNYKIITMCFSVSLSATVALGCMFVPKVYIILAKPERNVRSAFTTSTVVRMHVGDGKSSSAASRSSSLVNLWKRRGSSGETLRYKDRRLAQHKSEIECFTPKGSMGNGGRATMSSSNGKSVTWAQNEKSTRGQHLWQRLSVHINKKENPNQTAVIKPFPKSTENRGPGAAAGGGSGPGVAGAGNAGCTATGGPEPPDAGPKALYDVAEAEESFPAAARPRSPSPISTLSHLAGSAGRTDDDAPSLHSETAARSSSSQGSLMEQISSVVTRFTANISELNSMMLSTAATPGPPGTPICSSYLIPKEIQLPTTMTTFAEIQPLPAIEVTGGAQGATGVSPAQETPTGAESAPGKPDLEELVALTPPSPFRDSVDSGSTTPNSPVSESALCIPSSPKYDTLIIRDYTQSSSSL
Data set [3] has as its system Plasma. The experiment in a line: (§2) Fraction unbound in rat plasma at 5 uM after 4 hrs by equilibrium dialysis method. The data set is classed as ADME, cell-free. Conditions: 4 h, 5 µM.
Data set [4] addresses Metabotropic glutamate receptor 5 (Rattus norvegicus) (UniProt P31424). The experiment in a line: Ago-positive allosteric modulation of rat mGlu5 receptor expressed in HEK293 cells by fluorescence-based calcium flux assay relative to glutamate. The data set is classed as functional, cell-based. A general note: Calcium flux is commonly read through the fluorescence of an indicator in the cells.

The subject of a further data set is Liver microsomes. The experiment in a line: Metabolic stability in rat liver microsomes assessed as compound remaining at 1 uM after 15 mins in presence of NADPH. The data set is classed as ADME, Microsome. The note with it: 0.25 h.
Data set [5] addresses Metabotropic glutamate receptor 5 (Rattus norvegicus) (UniProt P31424). The experiment in a line: Displacement of [3H]-methoxyPEPy from rat mGlu5 receptor expressed in HEK293 cells up to 30 uM after 1 hr by scintillation counting analysis. The data set is classed as cell-based.
Data set [6] concerns the target T2, Metabotropic glutamate receptor 5 (Homo sapiens, UniProt P41594). Put plainly: Positive allosteric modulation of human mGlu5 receptor expressed in HEK293 cells by fluorescence-based calcium flux assay. The data set is classed as functional, cell-based.
Data set [7] concerns the target T2, Metabotropic glutamate receptor 5. Put plainly: Positive allosteric modulation of human mGlu5 receptor expressed in HEK293 cells by fluorescence-based calcium flux assay relative to glutamate. The data set is classed as functional, cell-based.
The next data set has as its system HEK293. The experiment in a line: Selectivity ratio of EC50 for human mGlu5 receptor expressed in HEK293 cells to EC50 for rat mGlu5 receptor expressed in HEK293 cells. The data set is classed as cell-based.
Data set [8] deals with Metabotropic glutamate receptor 6 (Homo sapiens) (UniProt O15303). The experiment in a line: Positive allosteric modulation of mGluR6.
Chain of Metabotropic glutamate receptor 6 (Homo sapiens) (O15303 whole entry): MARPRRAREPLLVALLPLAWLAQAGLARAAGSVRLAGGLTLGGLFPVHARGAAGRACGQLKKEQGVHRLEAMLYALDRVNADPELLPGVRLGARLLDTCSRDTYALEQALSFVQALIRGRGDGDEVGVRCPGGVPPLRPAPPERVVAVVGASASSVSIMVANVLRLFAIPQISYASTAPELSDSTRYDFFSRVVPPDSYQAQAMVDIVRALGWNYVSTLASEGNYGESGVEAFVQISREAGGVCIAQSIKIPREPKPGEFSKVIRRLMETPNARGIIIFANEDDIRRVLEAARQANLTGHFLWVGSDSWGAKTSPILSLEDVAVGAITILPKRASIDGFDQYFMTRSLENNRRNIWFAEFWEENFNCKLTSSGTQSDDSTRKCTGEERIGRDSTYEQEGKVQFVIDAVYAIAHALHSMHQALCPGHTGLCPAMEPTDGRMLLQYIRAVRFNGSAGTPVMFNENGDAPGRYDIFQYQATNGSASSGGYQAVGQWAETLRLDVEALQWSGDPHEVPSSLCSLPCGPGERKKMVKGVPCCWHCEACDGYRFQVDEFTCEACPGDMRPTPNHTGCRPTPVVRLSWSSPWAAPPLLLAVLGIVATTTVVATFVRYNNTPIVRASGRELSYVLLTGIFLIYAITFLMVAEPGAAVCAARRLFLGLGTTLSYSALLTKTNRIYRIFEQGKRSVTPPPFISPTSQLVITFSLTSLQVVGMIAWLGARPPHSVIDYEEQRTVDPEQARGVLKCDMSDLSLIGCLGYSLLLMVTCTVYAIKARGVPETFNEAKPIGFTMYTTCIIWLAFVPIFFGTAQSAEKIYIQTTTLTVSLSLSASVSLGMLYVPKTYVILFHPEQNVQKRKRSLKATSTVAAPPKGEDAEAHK
In data set [9] the target is Metabotropic glutamate receptor 2 (Homo sapiens) (UniProt Q14416). Put plainly: Positive allosteric modulation of mGluR2.
Data set [10] has as its target Metabotropic glutamate receptor 1 (Homo sapiens) (UniProt Q13255). Put plainly: Positive allosteric modulation of mGluR1.
The target of data set [11] is Metabotropic glutamate receptor 4 (Homo sapiens) (UniProt Q14833). The experiment in a line: Positive allosteric modulation of mGluR4.
Chain of Metabotropic glutamate receptor 4 (Homo sapiens) (Q14833 whole entry): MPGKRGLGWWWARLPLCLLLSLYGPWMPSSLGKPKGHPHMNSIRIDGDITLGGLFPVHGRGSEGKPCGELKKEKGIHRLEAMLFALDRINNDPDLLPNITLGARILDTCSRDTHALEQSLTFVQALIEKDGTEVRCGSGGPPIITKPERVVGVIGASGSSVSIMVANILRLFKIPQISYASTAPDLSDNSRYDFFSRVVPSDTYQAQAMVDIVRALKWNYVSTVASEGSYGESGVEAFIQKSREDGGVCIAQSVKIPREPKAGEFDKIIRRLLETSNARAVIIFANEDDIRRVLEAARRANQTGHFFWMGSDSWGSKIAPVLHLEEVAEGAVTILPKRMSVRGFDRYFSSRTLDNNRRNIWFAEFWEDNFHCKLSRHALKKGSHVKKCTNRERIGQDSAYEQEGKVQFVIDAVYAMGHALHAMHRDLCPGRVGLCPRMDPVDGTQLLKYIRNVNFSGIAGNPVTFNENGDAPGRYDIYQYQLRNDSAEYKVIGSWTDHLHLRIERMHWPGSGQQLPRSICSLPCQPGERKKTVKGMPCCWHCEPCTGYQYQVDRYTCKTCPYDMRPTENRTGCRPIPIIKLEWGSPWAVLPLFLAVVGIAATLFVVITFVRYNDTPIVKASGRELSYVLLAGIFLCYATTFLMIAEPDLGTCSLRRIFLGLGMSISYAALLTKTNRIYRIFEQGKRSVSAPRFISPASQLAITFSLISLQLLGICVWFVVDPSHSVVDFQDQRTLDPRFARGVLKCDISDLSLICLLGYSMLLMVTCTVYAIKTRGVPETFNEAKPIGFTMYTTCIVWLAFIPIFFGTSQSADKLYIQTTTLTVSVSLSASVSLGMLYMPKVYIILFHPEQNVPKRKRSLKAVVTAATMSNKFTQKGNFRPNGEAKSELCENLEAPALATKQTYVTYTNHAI
Data set [12] concerns the target T1, Metabotropic glutamate receptor 5. Put plainly: Displacement of [3H]-methoxyPEPy from rat mGlu5 receptor expressed in HEK293 cells after 1 hr by scintillation counting analysis. The data set is classed as cell-based. In general terms: Loss of bound radioactivity is the signal in a displacement assay; it reports binding, not function.
Data set [13] has as its target Metabotropic glutamate receptor 7 (Homo sapiens) (UniProt Q14831). The experiment in a line: Positive allosteric modulation of mGluR7.
Data set [14] concerns the target Metabotropic glutamate receptor 3 (Homo sapiens) (UniProt Q14832). The experiment in a line: Positive allosteric modulation of mGluR3.
The target in data set [15] is Metabotropic glutamate receptor 8 (Homo sapiens) (UniProt O00222). The experiment in a line: Positive allosteric modulation of mGluR8.
Data set [16] in a line: as §1. The data set is classed as ADME, cell-free.
A short description of data set [17]: as §2. The data set is classed as ADME, cell-free.
The nature of data set [18]: Inhibition of calcium channel.
The target in data set [19] is Voltage-gated inwardly rectifying potassium channel KCNH2 (Homo sapiens, UniProt Q12809). The experiment in a line: Inhibition of human ERG.
The nature of data set [20]: Inhibition of sodium channel.
Data set [21] is described as follows: Ratio of AUC in Sprague-Dawley rat brain at 10 mg/kg, ip to AUC in Sprague-Dawley rat plasma at 10 mg/kg, ip. The data set is classed as ADME, organism-based. Conditions: brain and plasma, read-out: Ratio AUC.

Chain of Metabotropic glutamate receptor 7 (Homo sapiens) (Q14831 whole entry): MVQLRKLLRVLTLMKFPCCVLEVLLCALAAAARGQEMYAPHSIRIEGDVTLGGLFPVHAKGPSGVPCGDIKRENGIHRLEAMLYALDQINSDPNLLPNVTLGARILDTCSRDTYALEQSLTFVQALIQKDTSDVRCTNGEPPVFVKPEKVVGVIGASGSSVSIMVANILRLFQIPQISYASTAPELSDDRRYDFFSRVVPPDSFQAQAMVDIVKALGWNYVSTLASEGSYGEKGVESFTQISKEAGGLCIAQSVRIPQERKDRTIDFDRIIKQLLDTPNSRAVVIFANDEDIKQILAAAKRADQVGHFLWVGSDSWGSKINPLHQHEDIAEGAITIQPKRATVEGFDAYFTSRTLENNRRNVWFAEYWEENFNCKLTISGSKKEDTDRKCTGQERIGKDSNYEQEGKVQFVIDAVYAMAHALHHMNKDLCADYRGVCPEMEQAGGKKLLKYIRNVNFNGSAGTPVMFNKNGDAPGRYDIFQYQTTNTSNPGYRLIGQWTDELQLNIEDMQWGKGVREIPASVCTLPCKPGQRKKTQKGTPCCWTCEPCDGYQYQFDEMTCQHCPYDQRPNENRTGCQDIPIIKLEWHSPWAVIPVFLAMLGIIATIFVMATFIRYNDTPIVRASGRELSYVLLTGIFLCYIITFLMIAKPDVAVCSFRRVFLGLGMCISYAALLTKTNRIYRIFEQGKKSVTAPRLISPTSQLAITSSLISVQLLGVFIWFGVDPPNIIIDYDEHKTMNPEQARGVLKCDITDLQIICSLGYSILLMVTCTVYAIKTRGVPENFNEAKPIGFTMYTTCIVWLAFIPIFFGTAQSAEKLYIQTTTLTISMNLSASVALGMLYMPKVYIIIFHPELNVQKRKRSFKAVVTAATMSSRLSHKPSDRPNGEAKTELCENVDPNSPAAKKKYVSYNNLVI
Chain of Metabotropic glutamate receptor 1 (Homo sapiens) (Q13255 19-1194 limits assumed): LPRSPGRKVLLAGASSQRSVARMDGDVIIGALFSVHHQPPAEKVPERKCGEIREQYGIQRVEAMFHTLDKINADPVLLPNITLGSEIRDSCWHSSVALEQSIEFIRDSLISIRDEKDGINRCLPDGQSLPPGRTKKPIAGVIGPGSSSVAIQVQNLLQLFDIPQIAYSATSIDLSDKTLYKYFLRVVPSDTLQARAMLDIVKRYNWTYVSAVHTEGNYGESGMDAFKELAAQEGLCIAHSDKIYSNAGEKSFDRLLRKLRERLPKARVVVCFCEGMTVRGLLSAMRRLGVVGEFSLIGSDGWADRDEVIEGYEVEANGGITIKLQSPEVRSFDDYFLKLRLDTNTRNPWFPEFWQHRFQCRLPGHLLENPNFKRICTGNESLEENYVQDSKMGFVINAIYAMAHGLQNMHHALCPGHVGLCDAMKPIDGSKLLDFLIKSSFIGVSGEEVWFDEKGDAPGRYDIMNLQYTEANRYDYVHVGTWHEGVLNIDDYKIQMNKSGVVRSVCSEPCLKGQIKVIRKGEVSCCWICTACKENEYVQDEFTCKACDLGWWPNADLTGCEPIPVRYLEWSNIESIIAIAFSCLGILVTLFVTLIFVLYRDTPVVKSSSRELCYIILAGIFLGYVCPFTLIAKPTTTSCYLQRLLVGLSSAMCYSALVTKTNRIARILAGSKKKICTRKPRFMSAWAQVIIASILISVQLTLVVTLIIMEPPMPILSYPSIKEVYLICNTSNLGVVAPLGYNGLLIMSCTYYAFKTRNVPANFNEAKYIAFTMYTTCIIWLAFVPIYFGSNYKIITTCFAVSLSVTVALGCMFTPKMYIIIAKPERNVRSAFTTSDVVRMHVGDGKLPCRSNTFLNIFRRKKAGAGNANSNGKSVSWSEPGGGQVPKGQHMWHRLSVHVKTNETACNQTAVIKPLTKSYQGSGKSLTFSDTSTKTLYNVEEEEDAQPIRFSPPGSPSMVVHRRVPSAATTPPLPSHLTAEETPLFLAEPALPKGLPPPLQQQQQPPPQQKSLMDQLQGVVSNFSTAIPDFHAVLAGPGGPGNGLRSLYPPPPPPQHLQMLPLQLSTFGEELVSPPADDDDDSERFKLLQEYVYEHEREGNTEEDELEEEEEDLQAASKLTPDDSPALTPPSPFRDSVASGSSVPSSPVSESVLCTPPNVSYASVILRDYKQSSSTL

Take `CS(=O)(=O)N(CC(=O)Nc1ccc(F)cn1)c1ccccc1Cl`: the Fu in the data set with Plasma [1] worked out at 0.09; in the data set with Plasma [3], 0.17. Also, the EC50 in [2] worked out at 3.72 µM. In data set [4], the Emax is 66%. For the same compound, the Stability with Liver microsomes is recorded as 39%.

Take `O=S(=O)(c1ccc(C#Cc2cccc(F)c2)cc1)N1CCOCC1`: the results for the EC50 in data set [2] and in data set [6] (hek293) were 0.457 µM and “Not Active”, respectively. In addition, the result in [5] was inactive. The Emax in data set [4] came out at 55%.

For `CC(C(=O)Nc1cccc(Cl)c1)N(c1ccccc1Cl)S(C)(=O)=O` (racemic), in [2], the EC50 was 0.068 µM. The Emax in [4] was determined as 43%.

On to `CS(=O)(=O)N(CC(=O)Nc1ccc(F)nc1)c1ccccc1Cl`, for which the EC50 was 4.47 µM in data set [2] and more than 10 µM in data set [6] (read-out: EC50). Also, the Emax in data set [7] came to 35%; in data set [4], 72%. Also, in [6] (hek293), the pEC50 is less than 5.

With `O=C(Nc1ccc(Cl)cc1CN1C(=O)c2ccccc2C1=O)c1ccccc1O`, in the data set on HEK293, the Ratio EC50 stood at 3.

With `CS(=O)(=O)N(CC(=O)Nc1cccnc1F)c1ccccc1Cl`, the EC50 in [2] was 1.74 µM; in data set [6] (read-out: EC50) it was more than 10 µM. Moreover, the figures for the Emax in data set [7] and in [4] were 42% and 64%, respectively. Moreover, the negative logarithm of the EC50 (pEC50) in data set [6] (hek293) is less than 5.

Regarding `CS(=O)(=O)N(CC(=O)Nc1ccccc1)c1ccccc1Cl`, the Activity in data set [8], in data set [9], in data set [10], in [11], in [13] and in data set [14] was more than 10 µM each time. Besides, the results for the EC50 in data set [2] and in data set [6] (read-out: EC50) were 0.07 µM and 1.38 µM, respectively. Besides, the Emax in data set [7] was 77%; in [4], 61%. In the data set on Plasma [3], this compound returned a Fu of 0.13. For the same compound, in data set [12], the Ki was more than 10 µM. In addition, in the data set with Liver microsomes, the Stability entry is “<= 4%”.

As for `O=C(Nc1cccc(Cl)c1)[C@@H]1CCc2ccccc2N1S(=O)(=O)c1ccccc1F`, in data set [2], the EC50 came to 6.7 µM. Further, the Emax in [4] was 78%.

For `Cn1cnc(S(=O)(=O)N2c3ccccc3CCC2C(=O)Nc2cccc(Cl)c2)c1` (racemic), the EC50 in [2] is more than 10 µM. For the same compound, in data set [4], the Emax stood at 75%.

Take `CS(=O)(=O)N1c2ccccc2CCC1C(=O)Nc1cccc(Cl)c1` (racemic): in [2], the half-maximal effective concentration (EC50) is 1 µM. For the same compound, in [4], the Emax is 60%.

As to `CS(=O)(=O)N(CC(=O)Nc1cccc(Cl)c1)c1ccccc1Cl`, the Activity in data set [8], in [9], in data set [10], in [15], in data set [11] and in [13] was more than 10 µM throughout. The compound also came in with an Activity in data set [14] of more than 10 µM. Besides, the figures for the EC50 in data set [2] and in data set [6] (read-out: EC50) were 0.08 µM and 0.78 µM, respectively. Moreover, the Emax was determined as 63% in [7] and 74% in [4]. For the same compound, the Ki in [12] was more than 10 µM. Moreover, the Ratio EC50 in the data set with HEK293 turned out to be 10.

`CS(=O)(=O)N(CC(=O)NCC1CC1)c1cc(C(F)(F)F)ccc1Cl`: the free fraction (fraction unbound) at 4 h, 5 µM in data set [16] was 0.1; in data set [17] it was 0.13. The Activity in data set [8], in [9], in data set [10], in data set [15], in data set [11] and in data set [13] was more than 10 µM throughout. In [14], this compound registered an Activity of more than 10 µM. The EC50 in data set [2] worked out at 0.398 µM; in [6] (read-out: EC50) it was 4.5 µM. Besides, the Emax in data set [7] came out at 70%; in [4], 61%. Moreover, the IC50 in data set [18], in [19] and in data set [20] was more than 10 µM throughout. The compound also returned an inhibition constant (Ki) in data set [12] of more than 30 µM. In addition, in data set [21], the Kp was found to be 0.4.

In the case of `CCC(C(=O)Nc1cccc(Cl)c1)N(c1ccccc1Cl)S(C)(=O)=O` (racemic), the EC50 in [2] is 3.3 µM.

In the case of `CS(=O)(=O)N1c2ccccc2CCC1C(=O)Nc1ccccn1` (racemic), the EC50 in data set [2] was 1.3 µM. The Emax in data set [4] was determined as 68%.

In the case of `CCS(=O)(=O)N1c2ccccc2CC[C@H]1C(=O)Nc1cccc(Cl)c1`, the half-maximal effective concentration (EC50) in data set [2] was 2.5 µM. For the same compound, the maximum response (Emax) in data set [4] was 74%.

On to `CCCC(C(=O)Nc1cccc(Cl)c1)N(c1ccccc1Cl)S(C)(=O)=O` (racemic), for which, in data set [2], the EC50 was more than 10 µM.

On to `O=S(=O)(c1ccc(F)cc1)N1CCC[C@H](c2nc(-c3ccc(F)cc3)no2)C1`, for which the EC50 was 3.4 µM in data set [2] and more than 10 µM in data set [6] (read-out: EC50). For the same compound, the figures for the maximal response (Emax) in data set [7] and in [4] were 43% and 84%, respectively. Besides, the outcome in [5] was inactive.
